What follows are compounds tested against T1, BCAT2 (Homo sapiens, UniProt O15382) (assay: BCAT2 in vitro enzyme inhibition assay (resazurin/diaphorase-coupled fluorescence)). Conditions: average where tested multiple times.
T1 sequence (O15382 28-392): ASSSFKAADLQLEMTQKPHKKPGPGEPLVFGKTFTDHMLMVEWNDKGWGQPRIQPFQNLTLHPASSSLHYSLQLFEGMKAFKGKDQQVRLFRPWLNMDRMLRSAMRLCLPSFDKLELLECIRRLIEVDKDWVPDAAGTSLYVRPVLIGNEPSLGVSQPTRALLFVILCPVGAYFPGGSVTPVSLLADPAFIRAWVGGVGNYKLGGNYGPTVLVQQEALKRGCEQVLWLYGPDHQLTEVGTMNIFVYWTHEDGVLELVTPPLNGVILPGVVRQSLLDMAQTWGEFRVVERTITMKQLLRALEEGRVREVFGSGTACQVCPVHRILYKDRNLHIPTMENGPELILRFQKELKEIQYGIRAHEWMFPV
Type: biochemical
Procedure: BCAT2 In Vitro Enzyme Inhibition Assay
1.67× hBCAT2 Enzyme Mix: 0.33 μg/mL hBCAT2, 1× Buffer
2.5× Substrate Mix: 460 μM L-leucine, 420 μM α-KetoGlutarate, 10 U/mL glutamate dehydrogenase, 10 mM NAD, 30 μg/mL diaphorase, 20 μm Resazurin
BCAT2 enzyme stock solution was diluted to prepare a 1.67× hBCAT2 Enzyme Mix. 1 μL of test compound was first added to the reaction wells followed by 30 μL of 1.67× hBCAT2 Enzyme Mix and incubated at room temperature (25° C.) for one hour. Meanwhile the Substrate Mix was prepared. The reaction was initiated by the addition of 20 μL of the 2.5× Substrate Mix, bringing the final reaction mix of all components to 1×. Reactions were quenched after one hour by the addition of 25 μL of 6% SDS and reaction progress was measured via fluorescence read (Ex 540/Em 590).
Test Compound Preparation:
Test compounds were prepared at 50× final concentration in DMSO, 1 to 3 dilutions were made for 10 points. The compounds were added to the assay as a 1 to 50 dilution (1 μL in 50 μL) to yield a top assay final concentration of 100 μM, decreasing 3-fold for 10 points. Each compound dilution series test also included an assay max (1 μL DMSO Added in lieu of compound, Full Reaction Components Included) and Min (1 μL DMSO Added in lieu of compound, 30 μl of 1.67× hBCAT2 Enzyme Mix replated by 30 μL of 1× Buffer). All tests were performed in technical duplicate.
Where a compound was tested multiple times, the average value of the tests is reported.

IC50 [µM]	Structure (SMILES)
0.5 to 1	CS(=O)(=O)O[C@@H]1[C@@H](NC(=O)c2ncc(Cl)s2)CCC[C@H]1n1c(-c2ccccc2F)nc2cnc(-c3nc[nH]n3)cc21 [Example 448, (1R,2S,6R)-2-(5-chlorothiazole-2-carboxamido)-6-(2-(2-fluorophenyl)-6-(1H-1,2,4-triazol-3-yl)-1H-imidazo[4,5-c]pyridin-1-yl)cyclohexyl methanesulfonate]
> 1	O=C(NC1COCC(n2c(-c3ccccn3)nc3cnc(-n4ccnn4)cc32)C1)c1ncc(C(F)F)s1 (single isomer, unassigned) [Example 147, 5-(difluoromethyl)-N-(5-(2-(pyridin-2-yl)-6-(1H-1,2,3-triazol-1-yl)-1H-imidazo[4,5-c]pyridin-1-yl)tetrahydro-2H-pyran-3-yl)thiazole-2-carboxamide]
≤ 0.1	O=C(N[C@H]1CCC[C@@H](n2c(-c3ccccc3OCCO)nc3cnc(-c4nc[nH]n4)cc32)C1)c1ncc(Cl)s1 [Example 382, 5-chloro-N-((1S,3R)-3-(2-(2-(2-hydroxyethoxy)phenyl)-6-(1H-1,2,4-triazol-3-yl)-1H-imidazo[4,5-c]pyridin-1-yl)cyclohexyl)thiazole-2-carboxamide]
> 1	[N-]=[N+]=N[C@H]1[C@@H](NC(=O)c2ncc(Cl)s2)CCC[C@H]1n1c(-c2ccccc2F)nc2cnc(-c3nc[nH]n3)cc21 [Example 450, N-((1S,2S,3R)-2-azido-3-(2-(2-fluorophenyl)-6-(1H-1,2,4-triazol-3-yl)-1H-imidazo[4,5-c]pyridin-1-yl)cyclohexyl)-5-chlorothiazole-2-carboxamide]
0.1 to 0.5	CC(C)[C@@H](N)c1nc2cnc(-c3ccccn3)cc2n1[C@@H]1CCC[C@H](NC(=O)c2ncc(Cl)s2)C1 [Example 167, N-((1S,3R)-3-(2-((R)-1-amino-2-methylpropyl)-6-(pyridin-2-yl)-1H-imidazo[4,5-c]pyridin-1-yl)cyclohexyl)-5-chlorothiazole-2-carboxamide]
0.1 to 0.5	CC(C)Cc1nc2cnc(-c3nc[nH]n3)cc2n1[C@H]1C[C@@H](NC(=O)c2ccc(Cl)s2)CC(F)(F)C1 (stereo in doubt) [Example 453, 5-chloro-N-((1R,5S)-3,3-difluoro-5-(2-isobutyl-6-(1H-1,2,4-triazol-3-yl)-1H-imidazo[4,5-c]pyridin-1-yl)cyclohexyl)thiophene-2-carboxamide]
0.5 to 1	O=C(N[C@H]1CCC[C@@H](n2c(-c3ccccc3F)nc3cnc(-n4ccccc4=O)cc32)C1)c1ncc(Cl)s1 [Example 357, 5-chloro-N-((1S,3R)-3-(2-(2-fluorophenyl)-6-(2-oxopyridin-1(2H)-yl)-1H-imidazo[4,5-c]pyridin-1-yl)cyclohexyl)thiazole-2-carboxamide]
≤ 0.1	CC(C)Cc1nc2cnc(-c3ncc[nH]3)cc2n1[C@@H]1CCC[C@H](NC(=O)c2ncc(Cl)s2)C1 [Example 361, N-((1S,3R)-3-(6-(1H-imidazol-2-yl)-2-isobutyl-1H-imidazo[4,5-c]pyridin-1-yl)cyclohexyl)-5-chlorothiazole-2-carboxamide]
0.5 to 1	CO[C@H]1C[C@H](NC(=O)c2ncc(Cl)s2)C[C@H](n2c(-c3ccccc3F)nc3cnc(-n4nccn4)cc32)C1 (stereo in doubt) [Example 423, 5-chloro-N-((1R,3S,5S)-3-(2-(2-fluorophenyl)-6-(2H-1,2,3-triazol-2-yl)-1H-imidazo[4,5-c]pyridin-1-yl)-5-methoxycyclohexyl)thiazole-2-carboxamide]
> 1	CC(=O)Cc1nc2cnc(-c3ccccn3)cc2n1[C@@H]1CCC[C@H](NC(=O)c2ncc(Cl)s2)C1 [Example 362, 5-chloro-N-((1S,3R)-3-(2-(2-oxopropyl)-6-(pyridin-2-yl)-1H-imidazo[4,5-c]pyridin-1-yl)cyclohexyl)thiazole-2-carboxamide]
> 1	CC(C)Cc1nc2cnc(-n3cc(F)cn3)cc2n1[C@H]1C[C@H](O)C[C@@H](NC(=O)c2ncc(Cl)s2)C1 [Example 222, 5-chloro-N-((1S,3R,5R)-3-(6-(4-fluoro-1H-pyrazol-1-yl)-2-isobutyl-1H-imidazo[4,5-c]pyridin-1-yl)-5-hydroxycyclohexyl)thiazole-2-carboxamide]
≤ 0.1	CC(=O)N1CC(NC(=O)c2ccc(Br)s2)CC(n2c(-c3ccccn3)nc3ccc(-c4nnco4)cc32)C1 (centres unmarked) [Example 285, N-(5-(6-(1,3,4-oxadiazol-2-yl)-2-(pyridin-2-yl)-1H-benzo[d]imidazol-1-yl)-1-acetylpiperidin-3-yl)-5-bromothiophene-2-carboxamide]
≤ 0.1	CS(=O)(=O)N1C[C@@H](NC(=O)c2ncc(Cl)s2)C[C@@H](n2c(-c3ccccc3F)nc3cnc(-c4nc[nH]n4)cc32)C1 [Example 461, 5-chloro-N-((3S,5R)-5-(2-(2-fluorophenyl)-6-(1H-1,2,4-triazol-3-yl)-1H-imidazo[4,5-c]pyridin-1-yl)-1-(methylsulfonyl)piperidin-3-yl)thiazole-2-carboxamide]
> 1	CC(=O)N[C@H](c1nc2cnc(-c3nc[nH]n3)cc2n1[C@@H]1CCC[C@H](NC(=O)c2ncc(Cl)s2)C1)C(C)C [Example 368, N-((1S,3R)-3-(2-((S)-1-acetamido-2-methylpropyl)-6-(1H-1,2,4-triazol-3-yl)-1H-imidazo[4,5-c]pyridin-1-yl)cyclohexyl)-5-chlorothiazole-2-carboxamide]
> 1	CC(C)Cc1nc2cnc(-c3ccn(C)n3)cc2n1[C@H]1CCC[C@@H](NC(=O)c2ncc(Cl)s2)[C@@H]1O [Example 224, 5-chloro-N-((1R,2S,3S)-2-hydroxy-3-(2-isobutyl-6-(1-methyl-1H-pyrazol-3-yl)-1H-imidazo[4,5-c]pyridin-1-yl)cyclohexyl)thiazole-2-carboxamide]
> 1	COC[C@@H]1CCCN1c1cc2c(cn1)nc(-c1ccccc1F)n2[C@@H]1CCC[C@H](NC(=O)c2ncc(Cl)s2)C1 [Example 197, 5-chloro-N-((1S,3R)-3-(2-(2-fluorophenyl)-6-((S)-2-(methoxymethyl)pyrrolidin-1-yl)-1H-imidazo[4,5-c]pyridin-1-yl)cyclohexyl)thiazole-2-carboxamide]
> 1	CO[C@@H]1C[C@@H](NC(=O)c2ncc(Cl)s2)C[C@@H](n2c(CC(C)C)nc3cnc(-n4nccn4)cc32)C1 (single isomer, unassigned) [Example 422]
> 1	CC(C)Cc1nc2cnc(-c3ccn(C(F)F)n3)cc2n1[C@H]1C[C@H](O)C[C@@H](NC(=O)c2ncc(Cl)s2)C1 (single isomer, unassigned) [Example 212]
0.5 to 1	CN(C)Cc1ccccc1-c1nc2cnc(-c3nc[nH]n3)cc2n1[C@@H]1CCC[C@H](NC(=O)c2ncc(Cl)s2)C1 [Example 375, 5-chloro-N-((1S,3R)-3-(2-(2-((dimethylamino)methyl)phenyl)-6-(1H-1,2,4-triazol-3-yl)-1H-imidazo[4,5-c]pyridin-1-yl)cyclohexyl)thiazole-2-carboxamide]
0.1 to 0.5	O=C(N[C@H]1C[C@@H](n2c(-c3ccccc3F)nc3cnc(-c4nc[nH]n4)cc32)CS(=O)(=O)C1)c1ccc(Cl)s1 [Example 457, 5-chloro-N-((3S,5R)-5-(2-(2-fluorophenyl)-6-(1H-1,2,4-triazol-3-yl)-1H-imidazo[4,5-c]pyridin-1-yl)-1,1-dioxidotetrahydro-2H-thiopyran-3-yl)thiophene-2-carboxamide]
> 1	CC(C)Cc1nc2cnc(-n3nccn3)cc2n1[C@H]1CCC[C@@H](NC(=O)c2ncc(Cl)s2)[C@@H]1O [Example 228, 5-chloro-N-((1R,2S,3S)-2-hydroxy-3-(2-isobutyl-6-(2H-1,2,3-triazol-2-yl)-1H-imidazo[4,5-c]pyridin-1-yl)cyclohexyl)thiazole-2-carboxamide]
0.5 to 1	C[C@H]1CCCN1c1cc2c(cn1)nc(-c1ccccc1F)n2[C@@H]1CCC[C@H](NC(=O)c2ncc(Cl)s2)C1 [Example 194, 5-chloro-N-((1S,3R)-3-(2-(2-fluorophenyl)-6-((S)-2-methylpyrrolidin-1-yl)-1H-imidazo[4,5-c]pyridin-1-yl)cyclohexyl)thiazole-2-carboxamide]
> 1	CO[C@@H]1C[C@@H](NC(=O)c2ncc(Cl)s2)C[C@@H](n2c(CC(C)C)nc3cnc(-c4nc(C)co4)cc32)C1 [Example 410, 5-chloro-N-((1S,3R,5R)-3-(2-isobutyl-6-(4-methyloxazol-2-yl)-1H-imidazo[4,5-c]pyridin-1-yl)-5-methoxycyclohexyl)thiazole-2-carboxamide]

Reference: patent publication US20260159512A1, “BCAT2 INHIBITORS” (AGIOS PHARMACEUTICALS, INC., priority 2021, published 2026)
